Data: patent publication US8436178B2, “Imidazoquinolines with immuno-modulating properties” (AstraZeneca AB, priority 2007, dated 2013)
Structures can show the parent of a compound that is named as a salt.

Target: T1, human TLR7 (Homo sapiens, UniProt Q9NYK1)
T1 construct: expressed in transfected cells; host or cells: HEK293 cell line stably expressing the pNiFty2-SEAP reporter plasmid; TLR7 in pUNO vector, blasticidin selection
T1 sequence (Q9NYK1 27-1049): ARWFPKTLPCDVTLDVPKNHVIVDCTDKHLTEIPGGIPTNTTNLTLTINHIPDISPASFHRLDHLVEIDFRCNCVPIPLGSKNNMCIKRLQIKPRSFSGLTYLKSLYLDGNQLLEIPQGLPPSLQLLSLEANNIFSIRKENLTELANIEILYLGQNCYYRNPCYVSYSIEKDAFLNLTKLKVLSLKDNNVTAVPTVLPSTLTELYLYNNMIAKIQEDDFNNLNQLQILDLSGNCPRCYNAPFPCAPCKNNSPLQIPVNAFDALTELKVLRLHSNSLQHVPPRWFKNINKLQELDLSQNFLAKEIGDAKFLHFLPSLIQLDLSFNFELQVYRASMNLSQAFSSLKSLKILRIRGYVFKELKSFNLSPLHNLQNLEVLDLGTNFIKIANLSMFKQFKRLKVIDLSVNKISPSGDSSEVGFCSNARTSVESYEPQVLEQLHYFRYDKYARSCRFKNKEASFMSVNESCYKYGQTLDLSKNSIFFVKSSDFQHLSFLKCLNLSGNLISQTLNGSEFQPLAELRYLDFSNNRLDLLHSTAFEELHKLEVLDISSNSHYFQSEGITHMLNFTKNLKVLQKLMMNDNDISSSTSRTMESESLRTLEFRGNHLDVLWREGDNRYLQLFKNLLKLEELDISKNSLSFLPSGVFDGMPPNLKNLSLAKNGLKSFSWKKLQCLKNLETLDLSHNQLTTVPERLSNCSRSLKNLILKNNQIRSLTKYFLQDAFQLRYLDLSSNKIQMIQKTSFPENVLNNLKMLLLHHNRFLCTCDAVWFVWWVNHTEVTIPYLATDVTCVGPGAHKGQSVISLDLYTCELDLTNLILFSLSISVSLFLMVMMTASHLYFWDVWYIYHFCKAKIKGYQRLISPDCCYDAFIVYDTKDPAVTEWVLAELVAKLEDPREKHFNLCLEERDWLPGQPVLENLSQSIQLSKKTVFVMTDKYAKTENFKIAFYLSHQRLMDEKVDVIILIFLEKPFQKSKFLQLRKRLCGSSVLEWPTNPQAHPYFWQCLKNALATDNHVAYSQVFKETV
Experiment: Human TLR7 assay (SEAP reporter in HEK293 cells)
Type: cell-based
Settings: SEAP induction in HEK293 cells expressing human TLR7, overnight incubation at 37° C., 0.1% DMSO
Source text: The most common variant sequence of human TLR7 (represented by the EMBL sequence AF240467) was cloned into the mammalian cell expression vector pUNO and transfected into a HEK293 cell line already stably expressing the pNiFty2-SEAP reporter plasmid; integration of the reporter gene was maintained by selection with the antibiotic zeocin. Transfectants with stable TLR7 expression were selected using the antibiotic blasticidin. In this reporter cell-line, expression of secreted alkaline phosphatase (SEAP) is controlled by an NFkB/ELAM-1 composite promoter comprising five NFkB sites combined with the proximal ELAM-1 promoter. TLR signaling leads to the translocation of NFkB and activation of the promoter results in expression of the SEAP gene. TLR7-specific activation was assessed by determining the level of SEAP produced following overnight incubation of the cells at 37° C. with the standard compound in the presence of 0.1% (v/v) dimethylsulfoxide (DMSO). Concentration dependent induction of SEAP production by compounds was expressed as the concentration of compound which produced half of the maximal level of SEAP induction for that compound (pEC50).

SMILES | EC50
CCCCc1nc2c(N)nc3ccccc3c2n1CCCNCc1ccc(CC(=O)OC)cc1 [Example 1, Methyl 2-(4-((3-(4-amino-2-butyl-1H-imidazo[4,5-c]quinolin-1-yl)propylamino)methyl)phenyl)acetate] | 316 nM
CCCCc1nc2c(N)nc3ccccc3c2n1CCCNCc1cccc(CC(=O)OC)c1 [Example 2, Methyl 2-(3-((3-(4-amino-2-butyl-1H-imidazo[4,5-c]quinolin-1-yl)propylamino)methyl)phenyl)acetate] | 398 nM
CCOCc1nc2c(N)nc3ccccc3c2n1CC1CCN(Cc2cccc(CC(=O)OC)c2)CC1 [Example 5, di-trifluoroacetate salt] | 316 nM
CCOCc1nc2c(N)nc3ccccc3c2n1CCCN(Cc1cccc(CC(=O)OC)c1)C(=O)CN(C)C [Example 7, Methyl 2-(3-((N-(3-(4-amino-2-(ethoxymethyl)-1H-imidazo[4,5-c]quinolin-1-yl)propyl)-2-(dimethylamino)acetamido)methyl)phenyl)acetate] | 398 nM
CCCCc1nc2c(N)nc3ccccc3c2n1CCCN(Cc1cccc(CC(=O)OC)c1)C1CCN(C)CC1 [Example 8, Methyl 2-(3-(((3-(4-amino-2-butyl-1H-imidazo[4,5-c]quinolin-1-yl)propyl)(1-methylpiperidin-4-yl)amino)methyl)phenyl)acetate] | 316 nM
CCCCc1nc2c(N)nc3ccccc3c2n1CCCN(Cc1ccc(CC(=O)OC)cc1)C1CCN(C)CC1 [Example 9, Methyl 2-(4-(((3-(4-amino-2-butyl-1H-imidazo[4,5-c]quinolin-1-yl)propyl)(1-methylpiperidin-4-yl)amino)methyl)phenyl)acetate] | 631 nM
CCCCc1nc2c(N)nc3ccccc3c2n1CCCN(Cc1ccc(CC(=O)OC)cc1)C(=O)CN1CCN(C)CC1 [Example 10, Methyl 2-(4-((N-(3-(4-amino-2-butyl-1H-imidazo[4,5-c]quinolin-1-yl)propyl)-2-(4-methylpiperazin-1-yl)acetamido)methyl)phenyl)acetate] | 501 nM
CCCCc1nc2c(N)nc3ccccc3c2n1CCCN(Cc1ccc(CC(=O)OC)cc1)C(=O)CS(C)(=O)=O [Example 15, Methyl 2-(4-((N-(3-(4-amino-2-butyl-1H-imidazo[4,5-c]quinolin-1-yl)propyl)-2-(methylsulfonyl)acetamido)methyl)phenyl)acetate] | 398 nM
CCCCc1nc2c(N)nc3ccccc3c2n1CCCN(Cc1ccc(CC(=O)OC)cc1)C(=O)CN1CCN(C(C)=O)CC1 [Example 19, Methyl 2-(4-((2-(4-acetylpiperazin-1-yl)-N-(3-(4-amino-2-butyl-1H-imidazo[4,5-c]quinolin-1-yl)propyl)acetamido)methyl)phenyl)acetate] | 251 nM
CCCCc1nc2c(N)nc3ccccc3c2n1CCCN(Cc1ccc(CC(=O)OC)cc1)C(=O)CN1CC[C@@H](O)C1 [Example 20, (R)-Methyl 2-(4-((N-(3-(4-amino-2-butyl-1H-imidazo[4,5-c]quinolin-1-yl)propyl)-2-(3-hydroxypyrrolidin-1-yl)acetamido)methyl)phenyl)acetate] | 251 nM
CCCCc1nc2c(N)nc3ccccc3c2n1CCCN(Cc1ccc(CC(=O)OC)cc1)C(=O)CN1CCN(c2ncccn2)CC1 [Example 21, Methyl 2-(4-((N-(3-(4-amino-2-butyl-1H-imidazo[4,5-c]quinolin-1-yl)propyl)-2-(4-(pyrimidin-2-yl)piperazin-1-yl)acetamido)methyl)phenyl)acetate] | 631 nM
CCCCc1nc2c(N)nc3ccccc3c2n1CCCN(Cc1ccc(CC(=O)OC)cc1)C(=O)CN1CCN(C(=O)OCC)CC1 [Example 22, Ethyl 4-(2-((3-(4-amino-2-butyl-1H-imidazo[4,5-c]quinolin-1-yl)propyl)(4-(2-methoxy-2-oxoethyl)benzyl)amino)-2-oxoethyl)piperazine-1-carboxylate] | 631 nM
CCCCc1nc2c(N)nc3ccccc3c2n1CCCN(Cc1ccc(CC(=O)OC)cc1)C(=O)CN1CCN(S(=O)(=O)CC)CC1 [Example 23, Methyl 2-(4-((N-(3-(4-amino-2-butyl-1H-imidazo[4,5-c]quinolin-1-yl)propyl)-2-(4-(ethylsulfonyl)piperazin-1-yl)acetamido)methyl)phenyl)acetate] | 251 nM
CCCCc1nc2c(N)nc3ccccc3c2n1CCCN(Cc1ccc(CC(=O)OC)cc1)C(=O)CN1CCC(NC(=O)OC(C)(C)C)CC1 [Example 25, Methyl 2-(4-((N-(3-(4-amino-2-butyl-1H-imidazo[4,5-c]quinolin-1-yl)propyl)-2-(4-(tert-butoxycarbonylamino)piperidin-1-yl)acetamido)methyl)phenyl)acetate] | 200 nM
CCCCc1nc2c(N)nc3ccccc3c2n1CCCN(Cc1ccc(CC(=O)OC)cc1)C(=O)CN1CCC(N(C)C(=O)OC(C)(C)C)CC1 [Example 26, Methyl 2-(4-((N-(3-(4-amino-2-butyl-1H-imidazo[4,5-c]quinolin-1-yl)propyl)-2-(4-(tert-butoxycarbonyl(methyl)amino)piperidin-1-yl)acetamido)methyl)phenyl)acetate] | 316 nM

The remaining compounds from weak to strong by EC50, led by results:

EC50 | SMILES
251 nM | CCCCc1nc2c(N)nc3ccccc3c2n1CCCN(CCN(C)C)Cc1ccc(CC(=O)OC)cc1 [Example 6, Methyl[4-({[3-(4-amino-2-butyl-1H-imidazo[4,5-c]quinolin-1-yl)propyl][2-(dimethylamino)ethyl]amino}methyl)phenyl]acetate]
251 nM | CCCCc1nc2c(N)nc3ccccc3c2n1CCCN(CCCN(C)C)Cc1cccc(CC(=O)OC)c1 [Example 11, Methyl 2-(3-(((3-(4-amino-2-butyl-1H-imidazo[4,5-c]quinolin-1-yl)propyl)(3-(dimethylamino)propyl)amino)methyl)phenyl)acetate]
251 nM | CCCCc1nc2c(N)nc3ccccc3c2n1CCCN(CCCN1CCOCC1)Cc1cccc(CC(=O)OC)c1 [Example 12, Methyl 2-(3-(((3-(4-amino-2-butyl-1H-imidazo[4,5-c]quinolin-1-yl)propyl)(3-morpholinopropyl)amino)methyl)phenyl)acetate]
251 nM | CCCCc1nc2c(N)nc3ccccc3c2n1CCCN(CCCN1CCN(C)CC1)Cc1cccc(CC(=O)OC)c1 [Example 14, Methyl 2-(3-(((3-(4-amino-2-butyl-1H-imidazo[4,5-c]quinolin-1-yl)propyl)(3-(4-methylpiperazin-1-yl)propyl)amino)methyl)phenyl)acetate]
158 nM | CCCCc1nc2c(N)nc3ccccc3c2n1CCCN(CCCN(C)CC)Cc1cccc(CC(=O)OC)c1 [Example 13, Methyl 2-(3-(((3-(4-amino-2-butyl-1H-imidazo[4,5-c]quinolin-1-yl)propyl)(3-(ethyl(methyl)amino)propyl)amino)methyl)phenyl)acetate]
158 nM | CCCCc1nc2c(N)nc3ccccc3c2n1CCCN(Cc1ccc(CC(=O)OC)cc1)C(=O)CN1CCOCC1 [Example 17, Methyl 2-(4-((N-(3-(4-amino-2-butyl-1H-imidazo[4,5-c]quinolin-1-yl)propyl)-2-morpholinoacetamido)methyl)phenyl)acetate]
126 nM | CCCCc1nc2c(N)nc3ccccc3c2n1CCCN(Cc1ccc(CC(=O)OC)cc1)C(C)=O [Example 16, Methyl 2-(4-((N-(3-(4-amino-2-butyl-1H-imidazo[4,5-c]quinolin-1-yl)propyl)acetamido)methyl)phenyl)acetate]
79.4 nM | CCCCc1nc2c(N)nc3ccccc3c2n1CCCN(Cc1ccc(CC(=O)OC)cc1)C(=O)CN1CCCCC1 [Example 24, Methyl 2-(4-((N-(3-(4-amino-2-butyl-1H-imidazo[4,5-c]quinolin-1-yl)propyl)-2-(piperidin-1-yl)acetamido)methyl)phenyl)acetate]
63.1 nM | CCCCc1nc2c(N)nc3ccccc3c2n1CCCN(Cc1ccc(CC(=O)OC)cc1)C(=O)CN(C)CCOC [Example 18]
39.8 nM | CCCCc1nc2c(N)nc3ccccc3c2n1CCCN(Cc1cccc(CC(=O)OC)c1)C(=O)CN(C)C [Example 4, Methyl 2-(3-((N-(3-(4-amino-2-butyl-1H-imidazo[4,5-c]quinolin-1-yl)propyl)-2-(dimethylamino)acetamido)methyl)phenyl)acetate]
39.8 nM | CCCCc1nc2c(N)nc3ccccc3c2n1CCCN(Cc1ccc(CC(=O)OC)cc1)C(=O)CN1CCC(CC(=O)OCC)CC1 [Example 27, Ethyl 2-(1-(2-((3-(4-amino-2-butyl-1H-imidazo[4,5-c]quinolin-1-yl)propyl)(4-(2-methoxy-2-oxoethyl)benzyl)amino)-2-oxoethyl)piperidin-4-yl)acetate]
